Experimental data reported in patent US20250215493A1, “NUCLEOTIDES WITH ENZYMATICALLY CLEAVABLE 3'-O-GLYCOSIDE BLOCKING GROUPS FOR SEQUENCING” (Illumina, Inc., priority 2023, published 2025).
Each block holds one molecule with its values, some of them ahead of it.

What was measured:
[1] = test system: α-Mannosidase 92B, Bacteroides thetaiotaomicron; test: Cleavage of 3′-glycoside thymidine by glycosyl hydrolases (HPLC); assay type: biochemical; settings: 100 mM HEPES pH 7.0, 2 mM CaCl2, 37° C.
Procedure: (§1) The cleavage of the 3′-glycoside moiety from 3′-(β)-glucopyranoside thymidine, 3′-(β)-xylopyranoside thymidine and 3′-(α)-mannopyranoside thymidine using glycosyl hydrolases was tested by incubating the nucleoside substrate (200 μM) with the enzyme (2 μM) in buffer. At set timepoints, 50 μL aliquots of the reaction solution were taken and quenched with 50 μL of either 0.1 M EDTA or […]. The aliquots were then analysed by reverse phase HPLC (YMC-Triart C18 Column, 12 nm, 5 μm, 250×4.6 mm column) using a gradient from 0% to 8% acetonitrile in 0.1 M TEAB over 25 minutes, monitoring the disappearance of the 3′-glycopyranoside thymidine substrate peak and the appearance of the thymidine product peak.

[2] = test system: α-Mannosidase 92S, Bacteroides thetaiotaomicron; test: as above; assay type: biochemical; settings: 100 mM HEPES pH 7.0, 2 mM CaCl2, 37° C.
Procedure: as §1

[3] = test system: β-Glucosidase 1A, Thermus thermophilus; test: as above; assay type: biochemical; settings: 100 mM sodium citrate pH 6.5, 50° C.; 200 μM substrate, 2 μM enzyme
Procedure: as §1

[4] = test system: β-Glucosidase 3B, Cellvibrio japonicus; test: as above; assay type: biochemical; settings: 37° C.
Procedure: as §1

[5] = test system: β-Glucosidase 1A, Thermobifida fusca; test: as above; assay type: biochemical; settings: 100 mM HEPES pH 7.0, 50° C.; 200 μM substrate, 2 μM enzyme
Procedure: as §1

[6] = test system: Xylosidase 43A, Thermobifida fusca; test: as above; assay type: biochemical; settings: 100 mM sodium citrate pH 5.5, 50° C.
Procedure: as §1

[7] = test system: Xylosidase 3A, Sulfolobus solfataricus; test: as above; assay type: biochemical; settings: 100 mM MES pH 6.0, 50° C.
Procedure: as §1

[8] = test system: Xylosidase 39A, Clostridium stercorarium; test: as above; assay type: biochemical; settings: 100 mM MES pH 6.0, 5 mM CaCl2, 50° C.
Procedure: as §1

[9] = test system: Pol A (SBS polymerase); test: Sequencing flowcell assay, loss of % T call signal on incorporation of unlabeled 3′ blocked dTTP; assay type: biochemical
Procedure: (§2) A further example examined whether cleavage of 3′-ABF is feasible on DNA clusters on the surface of a sequencing flow cell. To this end, a sequencing assay monitoring the loss and recovery of % T call signal as read-out was carried out using an Illumina NextSeq 2000 instrument with a P2 flow cell. FIG. 4A illustrates the sequencing assay workflow using loss and recovery of % T call signal as readout, including: (1) The % T call signal baseline based on a standard Illumina Green ffT (e.g., ffT-3′-AZM-LN3-AF550POPOso) is first established with a series of SBS cycles using standard SBS chemistry; (2) incorporation by Pol A (SBS polymerase) of unlabeled dTTP with a different 3′-block (i.e., 3′-ABF dTTP or 3′-AOM dTTP used as control) results in the loss of this signal; (3) the % T signal is only partially recovered to around 75% relative to the initial baseline in subsequent standard cycles as around 25% DNA clusters are blocked by the alternative 3′-block which is uncleaved under standard SBS chemistry conditions; (4) injection of the cleavage mix specifically removing this block (i.e., ABFase removing the 3′-ABF or Pd catalyst removing 3′-AOM for the control experiment) followed by standard cycles resulting in the full recovery of the signal. […]

[10] = test system: C. japonicum ABFase; test: Sequencing flowcell assay, recovery of % T call signal after enzymatic cleavage from DNA clusters; assay type: biochemical; settings: 30 minutes, 60° C., pH 5.5
Procedure: as §2

[11] = test system: T. maritima GH51 ABFase; test: Enzymatic cleavage of 3′-ABF deoxythymidine by GH51 ABFase (HPLC); assay type: biochemical, Thermotoga maritima; settings: 80° C., sodium phosphate pH 6.5; 200 μM substrate, 2 μM enzyme
Procedure: (§3) Candidate arabinofuranosidases (ABFases) were tested for hydrolysis of 3′-ABF. 3′-ABF deoxythymidine was preincubated in […] sodium citrate pH 5.5 or sodium phosphate pH 6.5 at designated temperatures for 5 minutes. Enzyme was added to the reaction so that the final reaction contained 200 μM substrate and 2 μM enzyme. At indicated time points, 50 μL aliquots were removed and quenched with 50 μL 0.1N NaOH prior to analysis by HPLC (YMC Triart C18, 250×4.5 mm, S-5 μm, 12 nm, 0.1M TEAB/100% Acetonitrile) to determine the percentage of enzymatically unblocked nucleotide (or % deprotection).
(§4) Various arabinofuranosidases (ABFases) included CAZy Glycoside Hydrolases family 51 (GH51) from Thermotoga maritima, Cellvibrio japonicus, Clostridium thermocellum, Bacillus subtilis, and Podosporina anserina. The molar ratio of enzyme to 3′-ABF deoxythymidine was 1:100 in all reaction mixes. The reaction using T. maritima ABFase was carried out at 80° C. with a sodium phosphate buffer to ensure a pH of 6.5. The reaction using C. japonicus ABFase was carried out at 37° C. with a sodium citrate buffer to ensure a pH of 5.5. The reaction using C. thermocellum ABFase was carried out at 65° C. with a sodium phosphate buffer to ensure a pH of 6.5. The reaction using B. subtilis ABFase was carried out at 60° C. with a sodium phosphate buffer to ensure a pH of 6.5. […]

[12] = test system: C. japonicus GH51 ABFase; test: as above; assay type: biochemical, Cellvibrio japonicus; settings: 37° C., sodium citrate pH 5.5; 200 μM substrate, 2 μM enzyme
Procedure: as §3, §4

[13] = target: C. thermocellum GH51 ABFase (Acetivibrio thermocellus, UniProt A3DIH0); test: as above; assay type: biochemical, Clostridium thermocellum; settings: 65° C., sodium phosphate pH 6.5; 200 μM substrate, 2 μM enzyme
Procedure: as §3, §4

[14] = test system: P. anserina GH51 ABFase; test: as above; assay type: biochemical, Podosporina anserina; settings: 60° C., sodium citrate pH 5.5; 200 μM substrate, 2 μM enzyme
Procedure: as §3, §4

[15] = test system: B. subtilis GH51 ABFase; test: as above; assay type: biochemical, Bacillus subtilis; settings: 60° C., sodium phosphate pH 6.5; 200 μM substrate, 2 μM enzyme
Procedure: as §3, §4

[16] = 3′-ABF blocking group stability testing (staging in incorporation buffer, UPLC); assay type: physicochemical
Procedure: T Nucleoside was blocked with a 3′-O-α-L-arabinofuranoside (3′-ABF,
blocking groups. 1 mL of 3′ blocked T nucleosides at 0.1 mM were made in a solution of 50 mM glycine buffer (pH 9.9), 50 mM NaCl, and 1 mM EDTA. F
These solutions were incubated at 60° C. in a heating block for 1 month. Spontaneous cleavage of the 3′-ABF under incorporation conditions (50 mM Glycine pH 9.8 at 60° C.) was measured by staging 3′-ABF deoxythymine to evaluate the stability of 3′-ABF as a blocking group. At set time points, 40 μL aliquots were taken and analyzed by UPLC (conditions/column) to determine the percentage of blocked nucleotide remaining and the eventual formation of unblocked nucleotide.

[17] = test system: mutant DNA polymerase Pol A; test: Primer extension assay, incorporation into DNA (33P-labelled primer:template, PAGE); assay type: biochemical
Procedure: The incorporation of the 5′-triphosphate 3′-[(β)-D-glucopyranosyl]thymidine and 5′-triphosphate 3′-[(β)-D-xylopyranosyl]thymidine into DNA by a mutant DNA polymerase Pol A was tested using a primer extension assay. Briefly, a ^33P-labelled DNA primer:template (20 nM) was incubated with the DNA polymerase ([…]) and the nucleotide triphosphates (1 μM) in buffer (50 mM Glycine pH 9.6, 50 mM NaCl, 9 mM MgSO4, 1 mM EDTA) at 60° C. The rate was determined by calculating the percentage of incorporation compared to the initial primer template band and the incorporation results are shown in FIG. 6B.

[18] = 1 μM nucleotide, 50 mM Glycine pH 9.6, 60° C.

C. thermocellum GH51 ABFase, sequence (A3DIH0 whole entry): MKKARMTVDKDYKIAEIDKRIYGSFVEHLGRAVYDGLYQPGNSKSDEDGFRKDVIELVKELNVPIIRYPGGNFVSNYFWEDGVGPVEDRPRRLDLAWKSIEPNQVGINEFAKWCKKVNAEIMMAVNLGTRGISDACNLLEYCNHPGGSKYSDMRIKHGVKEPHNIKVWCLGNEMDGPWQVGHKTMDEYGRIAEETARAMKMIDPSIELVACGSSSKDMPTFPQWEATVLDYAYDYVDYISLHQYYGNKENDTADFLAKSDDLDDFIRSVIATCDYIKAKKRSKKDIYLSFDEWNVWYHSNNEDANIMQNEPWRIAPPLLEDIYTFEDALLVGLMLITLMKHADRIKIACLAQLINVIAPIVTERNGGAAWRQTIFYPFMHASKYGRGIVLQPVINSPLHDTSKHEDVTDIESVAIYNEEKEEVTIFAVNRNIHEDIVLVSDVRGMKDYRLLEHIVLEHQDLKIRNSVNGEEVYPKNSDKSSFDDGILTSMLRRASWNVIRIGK

cleavage of the 3′-mannopyranoside group [1]: not observed
cleavage of the 3′-mannopyranoside group [2]: not observed
SMILES: Cc1cn([C@H]2CC(O[C@H]3OC(CO)[C@@H](O)C(O)C3O)[C@@H](CO)O2)c(=O)[nH]c1=O (stereo partly drawn) [3′-(α)-mannopyranoside thymidine, 3′-[(α)-D-mannopyranosyl]thymidine]

time to complete cleavage of the 3′-glucopyranoside group [3]: less than 2 minutes
time to complete cleavage of the 3′-glucopyranoside group ([4]; pH 6.5 (100 mM sodium citrate)): approximately 2 hours
time to complete cleavage of the 3′-glucopyranoside group ([4]; pH 7.5 (100 mM sodium phosphate)): approximately 2 hours
time to complete cleavage of the 3′-glucopyranoside group [5]: less than 2 minutes
SMILES: Cc1cn([C@H]2CC(O[C@@H]3OC(CO)[C@@H](O)C(O)C3O)[C@@H](CO)O2)c(=O)[nH]c1=O (stereo partly drawn) [3′-(β)-glucopyranoside thymidine, 3′-[(β)-D-glucopyranosyl]thymidine]

cleavage of the 3′-xylopyranoside group [6]: observed
time to full conversion of the substrate [6]: > 22 h
cleavage of the 3′-xylopyranoside group [7]: observed
time to full conversion of the substrate [7]: > 22 h
cleavage of the 3′-xylopyranoside group [8]: observed
time to full conversion of the substrate [8]: > 22 h
SMILES: Cc1cn([C@H]2CC(O[C@@H]3OC[C@@H](O)C(O)C3O)[C@@H](CO)O2)c(=O)[nH]c1=O (stereo partly drawn) [3′-(β)-xylopyranoside thymidine, 3′-[(β)-D-xylopyranosyl]thymidine]

SMILES: Cc1cn([C@H]2C[C@H](O[C@@H]3O[C@@H](CO)[C@H](O)[C@H]3O)[C@@H](COP(=O)(O)OP(=O)(O)OP(=O)(O)O)O2)c(=O)[nH]c1=O [3′-ABF TTP, 3′-O-(α-L-arabinofuranosyl)-deoxythymidine-5′-triphosphate]
% T fluorescence signal upon incorporation of the unlabeled nucleotide ([9]; NextSeq 2000, P2 flow cell): fully drops
% T fluorescence signal recovered when standard SBS cycles resume ([9]; of the initial baseline, before enzymatic cleavage): around 75%
recovery of the initial % T fluorescence signal after enzymatic cleavage [10]: full recovery

SMILES: Cc1cn([C@H]2C[C@H](O[C@@H]3O[C@@H](CO)[C@H](O)[C@H]3O)[C@@H](CO)O2)c(=O)[nH]c1=O [3′-ABF-dT, 3′-O-(α-L-arabinofuranosyl)-deoxythymidine]
observed reaction constant kobs [11]: 0.15 s⁻¹
observed reaction constant kobs [12]: 0.03 s⁻¹
observed reaction constant kobs [13]: 0.01 s⁻¹
observed reaction constant kobs [14]: 0.19 s⁻¹
observed reaction constant kobs [15]: 0.035 s⁻¹
percentage of remaining blocked nucleoside ([16]; after 31 days of staging at 60° C., 0.1 mM in 50 mM glycine buffer (pH 9.9), 50 mM NaCl, 1 mM EDTA): About 100%
stability of 3′-blocking group compared to AZM in solution ([16]; higher stability vs 3′-AZM-dT, 60° C., glycine buffer): 80-100 fold

SMILES: Cc1cn([C@H]2CC(O[C@@H]3OC(CO)[C@@H](O)C(O)C3O)[C@@H](COP(=O)(O)OP(=O)(O)OP(=O)(O)O)O2)c(=O)[nH]c1=O (stereo partly drawn) [5′-triphosphate 3′-[(β)-D-glucopyranosyl]thymidine]
incorporation observed [17, 18]: no detectable incorporation
substrate for Pol A [17, 18]: is a poor substrate for Pol A

SMILES: Cc1cn([C@H]2CC(O[C@@H]3OC[C@@H](O)C(O)C3O)[C@@H](COP(=O)(O)OP(=O)(O)OP(=O)(O)O)O2)c(=O)[nH]c1=O (stereo partly drawn) [5′-triphosphate 3′-[(β)-D-xylopyranosyl]thymidine]
substrate for Pol A [17, 18]: is a substrate for Pol A
rate of incorporation ([17]; compared to 5′-triphosphate 3′-[(α)-L-arabinofuranosyl]thymidine and 5′-triphosphate 3′-allyloxymethyl thymidine, 60° C., pH 9.6): slower
